Activity calls are given as the source filed them. The calls are words filed in the database; no cut-off is given here.
Key:
[1] = tested on: Mus musculus; experiment: Subacute toxicity in CD1 mouse assessed as absolute neutrophil counts at 80 mg/kg, ip after 30 days; type: organism-based; parameters: dose 80 mg/kg, route intraperitoneal; conditions: in vivo, 720 h
[2] = tested on: Rattus norvegicus; experiment: Effect on non-proliferating tissue in iv dosed Lewis rat assessed as toxic lesions in brain on day 7; type: ADME, organism-based; conditions: in vivo
[3] = molecular target: Serine/threonine-protein kinase PLK3 (Homo sapiens, UniProt Q9H4B4); experiment: Inhibition of human PLK3 in presence of 200 uM ATP
Chain of Serine/threonine-protein kinase PLK3 (Q9H4B4 whole entry): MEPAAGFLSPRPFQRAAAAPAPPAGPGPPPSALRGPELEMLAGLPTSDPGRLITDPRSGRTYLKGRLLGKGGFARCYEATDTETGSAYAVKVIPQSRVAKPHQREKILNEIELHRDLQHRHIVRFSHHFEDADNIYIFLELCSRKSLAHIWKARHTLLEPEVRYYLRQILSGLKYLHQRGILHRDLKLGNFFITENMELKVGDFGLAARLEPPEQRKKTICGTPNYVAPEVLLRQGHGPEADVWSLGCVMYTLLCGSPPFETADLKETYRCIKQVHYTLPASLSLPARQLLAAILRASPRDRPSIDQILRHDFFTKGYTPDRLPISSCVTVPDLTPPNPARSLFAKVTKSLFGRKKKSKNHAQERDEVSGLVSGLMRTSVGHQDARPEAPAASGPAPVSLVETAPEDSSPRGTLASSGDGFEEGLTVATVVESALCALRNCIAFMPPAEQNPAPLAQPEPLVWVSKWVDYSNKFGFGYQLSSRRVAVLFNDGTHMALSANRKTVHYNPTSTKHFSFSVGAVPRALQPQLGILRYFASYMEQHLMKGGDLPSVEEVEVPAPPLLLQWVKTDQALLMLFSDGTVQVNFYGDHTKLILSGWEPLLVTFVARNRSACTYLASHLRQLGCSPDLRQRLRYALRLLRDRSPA

[4] = tested on: Mus musculus; experiment: Acute toxicity in CD1 mouse assessed as absolute lymphocyte counts at 80 mg/kg, ip after 7 days; type: organism-based; parameters: dose 80 mg/kg, route intraperitoneal; conditions: in vivo, 168 h
[5] = tested on: Mus musculus; experiment: Subacute toxicity in CD1 mouse assessed as myeloid or lymphoid hyperplasia in bone marrow at 40 mg/kg, ip after 30 days; type: organism-based; parameters: dose 40 mg/kg, route intraperitoneal; conditions: in vivo, 720 h
[6] = tested on: Mus musculus; experiment: Effect on non-proliferating tissue in po dosed BALB/c mouse assessed as toxic lesions in lung; type: ADME, organism-based; conditions: in vivo
[7] = tested on: Mus musculus; experiment: Subacute toxicity in CD1 mouse assessed as absolute lymphocyte counts at 40 mg/kg, ip after 30 days; type: organism-based; parameters: dose 40 mg/kg, route intraperitoneal; conditions: in vivo, 720 h
[8] = molecular target: T1, Serine/threonine-protein kinase PLK1 (Xenopus laevis, UniProt P70032); experiment: Inhibition of Xenopus recombinant Plx1 expressed in Sf21 cells by GST-Cdc25 substrate phosphorylation assay; type: functional
T1 sequence (P70032 whole entry): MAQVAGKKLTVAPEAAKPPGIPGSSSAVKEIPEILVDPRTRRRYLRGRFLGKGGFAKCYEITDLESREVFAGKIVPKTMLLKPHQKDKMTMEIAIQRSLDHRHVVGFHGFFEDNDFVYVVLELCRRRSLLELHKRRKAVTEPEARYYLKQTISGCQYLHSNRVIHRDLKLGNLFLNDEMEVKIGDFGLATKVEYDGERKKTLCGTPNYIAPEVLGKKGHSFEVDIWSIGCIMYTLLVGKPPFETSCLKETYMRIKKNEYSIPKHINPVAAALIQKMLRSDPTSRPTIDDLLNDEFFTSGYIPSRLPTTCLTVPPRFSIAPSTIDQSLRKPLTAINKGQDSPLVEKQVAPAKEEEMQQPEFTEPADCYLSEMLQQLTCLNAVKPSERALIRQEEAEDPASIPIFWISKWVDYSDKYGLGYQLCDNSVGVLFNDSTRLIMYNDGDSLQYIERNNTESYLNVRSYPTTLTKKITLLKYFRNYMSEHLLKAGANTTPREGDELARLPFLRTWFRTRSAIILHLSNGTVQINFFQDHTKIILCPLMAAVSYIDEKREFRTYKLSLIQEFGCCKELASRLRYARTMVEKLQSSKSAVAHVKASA

[9] = molecular target: Tyrosine-protein kinase Fyn (Homo sapiens, UniProt P06241); experiment: Inhibition of FYN kinase
Chain of Tyrosine-protein kinase Fyn (P06241 whole entry): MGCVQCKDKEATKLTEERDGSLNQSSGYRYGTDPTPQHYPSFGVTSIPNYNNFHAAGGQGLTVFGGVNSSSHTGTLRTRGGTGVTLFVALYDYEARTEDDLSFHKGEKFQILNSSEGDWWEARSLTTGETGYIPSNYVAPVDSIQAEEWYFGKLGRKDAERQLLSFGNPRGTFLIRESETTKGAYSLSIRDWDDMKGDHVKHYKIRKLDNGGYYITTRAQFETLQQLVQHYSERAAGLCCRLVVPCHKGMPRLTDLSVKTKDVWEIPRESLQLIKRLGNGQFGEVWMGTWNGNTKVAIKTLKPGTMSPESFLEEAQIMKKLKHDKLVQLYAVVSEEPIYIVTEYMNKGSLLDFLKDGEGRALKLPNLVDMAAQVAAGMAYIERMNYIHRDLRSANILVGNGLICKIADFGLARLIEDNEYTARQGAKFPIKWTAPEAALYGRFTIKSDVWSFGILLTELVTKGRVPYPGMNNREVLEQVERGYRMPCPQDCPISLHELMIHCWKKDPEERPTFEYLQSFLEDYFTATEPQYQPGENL

[10] = tested on: Mus musculus; experiment: Subacute toxicity in CD1 mouse assessed as absolute neutrophil counts at 20 mg/kg, ip after 30 days; type: organism-based; parameters: dose 20 mg/kg, route intraperitoneal; conditions: in vivo, 720 h
[11] = tested on: Mus musculus; experiment: Toxicity in cumulative po dosed BALB/c mouse; type: organism-based; conditions: in vivo
[12] = molecular target: Cyclin-dependent kinase 3 (Homo sapiens, UniProt Q00526); experiment: Inhibition of CDK3
Chain of Cyclin-dependent kinase 3 (Q00526 whole entry): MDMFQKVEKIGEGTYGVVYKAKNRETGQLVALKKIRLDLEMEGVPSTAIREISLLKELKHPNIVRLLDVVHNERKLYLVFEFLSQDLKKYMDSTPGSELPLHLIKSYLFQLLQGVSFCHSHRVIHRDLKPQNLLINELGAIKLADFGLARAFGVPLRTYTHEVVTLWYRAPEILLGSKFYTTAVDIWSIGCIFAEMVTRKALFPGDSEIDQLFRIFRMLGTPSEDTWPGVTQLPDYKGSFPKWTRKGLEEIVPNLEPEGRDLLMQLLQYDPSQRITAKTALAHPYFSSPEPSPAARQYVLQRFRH

[13] = tested on: Mus musculus; experiment: Acute toxicity in CD1 mouse assessed as myeloid or lymphoid hyperplasia in bone marrow at 20 mg/kg, ip after 7 days; type: organism-based; parameters: dose 20 mg/kg, route intraperitoneal; conditions: in vivo, 168 h
[14] = tested on: Mus musculus; experiment: Effect on non-proliferating tissue in ip dosed CD1 mouse assessed as toxic lesions in myocardium; type: ADME, organism-based; conditions: in vivo
[15] = tested on: Mus musculus; experiment: Subacute toxicity in CD1 mouse assessed as absolute neutrophil counts at 40 mg/kg, ip after 30 days; type: organism-based; parameters: dose 40 mg/kg, route intraperitoneal; conditions: in vivo, 720 h
[16] = tested on: Mus musculus; experiment: Subacute toxicity in CD1 mouse assessed as myeloid or lymphoid hyperplasia in bone marrow at 20 mg/kg, ip after 30 days; type: organism-based; parameters: dose 20 mg/kg, route intraperitoneal; conditions: in vivo, 720 h
[17] = molecular target: Hepatocyte growth factor receptor (Homo sapiens, UniProt P08581); experiment: Inhibition of Met kinase
Chain of Hepatocyte growth factor receptor (P08581 whole entry): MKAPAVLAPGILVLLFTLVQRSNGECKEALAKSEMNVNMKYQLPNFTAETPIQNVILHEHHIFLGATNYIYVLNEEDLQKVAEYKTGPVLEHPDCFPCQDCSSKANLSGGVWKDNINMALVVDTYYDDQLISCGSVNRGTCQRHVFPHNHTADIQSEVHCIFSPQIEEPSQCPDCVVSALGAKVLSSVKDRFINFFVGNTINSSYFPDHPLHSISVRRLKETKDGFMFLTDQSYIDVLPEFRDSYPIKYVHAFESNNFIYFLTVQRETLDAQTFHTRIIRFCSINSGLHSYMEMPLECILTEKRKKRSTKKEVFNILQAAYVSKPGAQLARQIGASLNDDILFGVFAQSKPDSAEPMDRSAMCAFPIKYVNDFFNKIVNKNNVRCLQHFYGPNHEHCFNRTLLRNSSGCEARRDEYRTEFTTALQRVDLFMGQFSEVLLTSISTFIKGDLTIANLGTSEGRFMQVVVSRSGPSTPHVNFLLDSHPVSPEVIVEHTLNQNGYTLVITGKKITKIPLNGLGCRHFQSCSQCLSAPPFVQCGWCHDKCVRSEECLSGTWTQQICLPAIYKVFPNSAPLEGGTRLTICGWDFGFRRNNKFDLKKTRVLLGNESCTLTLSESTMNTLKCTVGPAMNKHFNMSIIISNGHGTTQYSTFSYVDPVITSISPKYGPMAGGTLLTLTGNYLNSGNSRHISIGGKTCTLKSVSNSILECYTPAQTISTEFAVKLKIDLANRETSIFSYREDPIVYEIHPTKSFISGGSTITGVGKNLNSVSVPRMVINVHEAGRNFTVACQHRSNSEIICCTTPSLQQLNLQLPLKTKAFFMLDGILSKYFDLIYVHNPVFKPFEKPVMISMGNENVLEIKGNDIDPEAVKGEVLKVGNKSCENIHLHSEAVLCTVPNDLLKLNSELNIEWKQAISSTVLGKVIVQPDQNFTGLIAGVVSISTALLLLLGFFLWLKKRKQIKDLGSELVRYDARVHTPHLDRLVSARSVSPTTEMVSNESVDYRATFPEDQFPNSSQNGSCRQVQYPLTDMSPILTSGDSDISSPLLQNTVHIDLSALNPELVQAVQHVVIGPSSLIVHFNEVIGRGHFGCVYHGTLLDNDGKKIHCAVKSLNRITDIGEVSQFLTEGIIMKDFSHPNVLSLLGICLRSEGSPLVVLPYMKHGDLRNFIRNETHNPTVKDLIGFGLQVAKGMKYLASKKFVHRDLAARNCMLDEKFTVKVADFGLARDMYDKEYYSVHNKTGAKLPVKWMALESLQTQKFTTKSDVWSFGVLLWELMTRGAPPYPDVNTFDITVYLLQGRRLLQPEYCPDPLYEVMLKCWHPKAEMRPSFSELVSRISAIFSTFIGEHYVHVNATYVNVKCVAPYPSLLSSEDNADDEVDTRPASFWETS

[18] = tested on: Rattus norvegicus; experiment: Toxicity in Lewis rat assessed as absolute neutrophil counts at 40 mg/kg, iv after 7 days; type: organism-based; parameters: dose 40 mg/kg, route intravenous; conditions: in vivo, 168 h
[19] = tested on: Rattus norvegicus; experiment: Toxicity in iv dosed Lewis rat; type: organism-based; conditions: in vivo
[20] = tested on: BT-20; experiment: Induction of aberrant monopolar and multipolar spindle formation in human BT20 cells assessed as at 100 uM; type: functional, cell-based
[21] = tested on: Rattus norvegicus; experiment: Toxicity in Lewis rat assessed as absolute lymphocyte counts at 80 mg/kg, iv after 7 days; type: organism-based; parameters: dose 80 mg/kg, route intravenous; conditions: in vivo, 168 h
[22] = tested on: Mus musculus; experiment: Subacute toxicity in CD1 mouse assessed as WBC counts at 10 mg/kg, ip after 30 days; type: organism-based; parameters: dose 10 mg/kg, route intraperitoneal; conditions: in vivo, 720 h
[23] = tested on: Mus musculus; experiment: Toxicity in daily po dosed BALB/c mouse; type: organism-based; conditions: in vivo
[24] = tested on: PTK1; experiment: Antiproliferative activity against anaphase PTK1 cells assessed as delay in mitosis completion; type: functional, cell-based; conditions: Potorous tridactylus
[25] = tested on: Mus musculus; experiment: Acute toxicity in CD1 mouse assessed as WBC counts at 20 mg/kg, ip after 7 days; type: organism-based; parameters: dose 20 mg/kg, route intraperitoneal; conditions: in vivo, 168 h
[26] = tested on: Mus musculus; experiment: Acute toxicity in CD1 mouse assessed as myeloid or lymphoid hyperplasia in bone marrow at 40 mg/kg, ip after 7 days; type: organism-based; parameters: dose 40 mg/kg, route intraperitoneal; conditions: in vivo, 168 h
[27] = tested on: Mus musculus; experiment: Subacute toxicity in CD1 mouse assessed as absolute lymphocyte counts at 20 mg/kg, ip after 30 days; type: organism-based; parameters: dose 20 mg/kg, route intraperitoneal; conditions: in vivo, 720 h
[28] = tested on: Mus musculus; experiment: Acute toxicity in CD1 mouse assessed as absolute neutrophil counts at 80 mg/kg, ip after 7 days; type: organism-based; parameters: dose 80 mg/kg, route intraperitoneal; conditions: in vivo, 168 h
[29] = tested on: Mus musculus; experiment: Toxicity in po dosed BALB/c mouse; type: organism-based; conditions: in vivo
[30] = molecular target: T1, Serine/threonine-protein kinase PLK1; experiment: Inhibition of xenopus recombinant Plx1 expressed in Sf21 cells by measuring autophosphorylation by 15-mins kinase assay; type: functional
[31] = tested on: Mus musculus; experiment: Effect on non-proliferating tissue in ip dosed CD1 mouse assessed as toxic lesions in pancreas; type: ADME, organism-based; conditions: in vivo
[32] = molecular target: Mitogen-activated protein kinase 14 (Homo sapiens, UniProt Q16539); experiment: Inhibition of SAPK2a
Chain of Mitogen-activated protein kinase 14 (Q16539 whole entry): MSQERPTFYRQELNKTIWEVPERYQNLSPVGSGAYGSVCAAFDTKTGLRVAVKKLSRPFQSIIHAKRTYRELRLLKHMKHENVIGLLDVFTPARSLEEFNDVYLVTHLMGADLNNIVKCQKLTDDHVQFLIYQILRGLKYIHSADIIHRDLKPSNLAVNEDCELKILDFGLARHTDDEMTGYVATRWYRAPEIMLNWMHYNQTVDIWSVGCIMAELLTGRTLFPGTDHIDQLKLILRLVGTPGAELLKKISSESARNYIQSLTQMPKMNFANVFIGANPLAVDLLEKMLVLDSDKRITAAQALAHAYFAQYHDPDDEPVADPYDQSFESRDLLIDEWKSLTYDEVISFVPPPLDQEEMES

[33] = tested on: Rattus norvegicus; experiment: Toxicity in Lewis rat assessed as myeloid or lymphoid hyperplasia in bone marrow at 20 mg/kg, iV after 7 days; type: organism-based; parameters: dose 20 mg/kg, route intravenous; conditions: in vivo, 168 h
[34] = tested on: Mus musculus; experiment: Effect on non-proliferating tissue in ip dosed CD1 mouse assessed as toxic lesions in lung; type: ADME, organism-based; conditions: in vivo
[35] = tested on: Mus musculus; experiment: Acute toxicity in CD1 mouse assessed as absolute lymphocyte counts at 40 mg/kg, ip after 7 days; type: organism-based; parameters: dose 40 mg/kg, route intraperitoneal; conditions: in vivo, 168 h
[36] = tested on: Mus musculus; experiment: Acute toxicity in CD1 mouse assessed as myeloid or lymphoid hyperplasia in bone marrow at 10 mg/kg, ip after 7 days; type: organism-based; parameters: dose 10 mg/kg, route intraperitoneal; conditions: in vivo, 168 h
[37] = tested on: Mus musculus; experiment: Subacute toxicity in CD1 mouse assessed as myeloid or lymphoid hyperplasia in bone marrow at 10 mg/kg, ip after 30 days; type: organism-based; parameters: dose 10 mg/kg, route intraperitoneal; conditions: in vivo, 720 h
[38] = tested on: Mus musculus; experiment: Subacute toxicity in CD1 mouse assessed as myeloid or lymphoid hyperplasia in bone marrow at 80 mg/kg, ip after 30 days; type: organism-based; parameters: dose 80 mg/kg, route intraperitoneal; conditions: in vivo, 720 h
[39] = tested on: Mus musculus; experiment: Subacute toxicity in CD1 mouse assessed as WBC counts at 40 mg/kg, ip after 30 days; type: organism-based; parameters: dose 40 mg/kg, route intraperitoneal; conditions: in vivo, 720 h
[40] = tested on: Rattus norvegicus; experiment: Toxicity in Lewis rat assessed as absolute lymphocyte counts at 40 mg/kg, iv after 7 days; type: organism-based; parameters: dose 40 mg/kg, route intravenous; conditions: in vivo, 168 h

C/C(O)=C(\C#N)C(=O)Nc1cc(Br)ccc1Br
Activity [1]: 1.7 10^9/L
Activity [2]: Non-toxic
IC50 [3]: 262 µM
Activity [4]: 4.6 10^9/L
Activity [5]: Non-toxic
Activity [6]: Non-toxic
Activity [7]: 5.1 10^9/L
IC50 [8]: 32.5 µM
IC50 [9]: 240 µM
Activity [10]: 2.2 10^9/L
LD10 [11]: > 11200 mg/kg
IC50 [12]: > 500 µM
Activity [13]: Non-toxic
Activity [14]: Non-toxic
Activity [15]: 1 10^9/L
Activity [16]: Non-toxic
IC50 [17]: 215 µM
Activity [18]: 2.1 10^9/L
LD10 [19]: > 80 mg/kg
Activity [20]: Active
Activity [21]: 9.7 10^9/L
Activity [22]: 6 10^9/L
LD10 [23]: > 200 mg/kg
Activity [24]: Active
Activity [25]: 7.6 10^9/L
Activity [26]: Non-toxic
Activity [27]: 3.9 10^9/L
Activity [28]: 1.7 10^9/L
LD10 [29]: > 100 mg/kg
IC50 [30]: 10.3 µM
Activity [31]: Non-toxic
IC50 [32]: > 500 µM
Activity [33]: Non-toxic
Activity [34]: Non-toxic
Activity [35]: 5.2 10^9/L
Activity [36]: Non-toxic
Activity [37]: Non-toxic
Activity [38]: Non-toxic
Activity [39]: 6.4 10^9/L
Activity [40]: 10.6 10^9/L

Source: ChEMBL document CHEMBL1144565, “Anti-breast cancer activity of LFM-A13, a potent inhibitor of Polo-like kinase (PLK)” (Bioorg Med Chem, 2007)
